Data taken from patent publication US10626135B2, “Crystal forms of sodium-glucose co-transporter inhibitor, processes for preparation and use thereof” (CRYSTAL PHARMACEUTICAL (SUZHOU) CO., LTD., priority 2016, dated 2020).
In brackets after ≈: the same amount, converted by molar mass. Entries after “also recorded” stand apart in the source; their conditions may differ.

Tests used:
[1] = Dynamic solubility in FaSSIF (fasted state simulated intestinal fluids, pH=6.5), HPLC; format: physicochemical; conditions: for Solubility relative to existing crystalline Form 2: FaSSIF, 1 hour
Method: (§1) The HPLC method parameters for solubility test in the present disclosure are as follows:
(§2) Saturated solutions of Form I, Form II, Form III, Form VII and the existing crystalline Form 2 in SGF (Simulated gastric fluids) were prepared. Saturated solutions of Form II, Form III, Form VII, Form VIII and the existing crystalline Form 2 in FaSSIF (Fasted state simulated intestinal fluids, pH=6.5) were prepared. After equilibrated for 1 hour, concentrations of the saturated solutions were measured by High Performance Liquid Chromatography (HPLC).

[2] = Particle size distribution assessment (laser particle size analyzer); format: physicochemical; conditions: for D10 / D50 / D90 / MV (average particle size based on volume): wet method, Isopar G
Source text: The result of particle size distribution (PSD) in the present disclosure was acquired by laser particle size analyzer with S3500 model from Microtrac Company. The Microtrac S3500 is equipped with a SDC (Sample Delivery Controller) sampling system. This experiment uses a wet method and the dispersion medium is Isopar G. The method and parameters of the laser particle size analyzer are as follows: [table] Certain amount of Form I, Form V, Form VIII and existing crystalline Form 2 were taken for particle size distribution test, and the results were shown in Table 29.

[3] = Mechanical stability assessment: manual grinding, XRPD; format: physicochemical; conditions: ground manually for 5 minutes in mortar
Method: Solid sample of Form I, Form VI and the existing crystalline Form 2 were ground manually for 5 minutes in mortar. XRPD was applied to detect the crystalline form.

[4] = Dynamic solubility in SGF (simulated gastric fluids), HPLC; format: physicochemical; conditions: for Solubility 1 hour: Media: SGF, equilibrated for 1 hour; for Solubility relative to existing crystalline Form 2: SGF, 1 hour
Method: as §1, §2

[5] = Morphology assessment by polarized light microscopy; format: physicochemical
Method: The existing crystalline Form 2 and Form I in the present disclosure were tested by polarized light microscopy. The PLM results of the Form 2 and Form I were shown in FIG. 48 and FIG. 49, respectively.

[6] = Stability study: storage at 25° C./60% RH and 40° C./75% RH, XRPD; format: physicochemical; conditions: for Stability on storage: 25° C./60% RH and 40° C./75% RH for 3 months; for Solid Form after storage: 3 months
Method: Form I, Form II, Form III and Form VI were stored under different conditions of 25° C./60% RH and 40° C./75% RH for 3 months. XRPD was applied to detect the crystalline forms. The XRPD overlay of Form I, Form II, Form III and Form VI before and after stored under above two conditions were shown in FIG. 44, FIG. 45, FIG. 46 and FIG. 47, respectively.

[7] = Hygroscopicity assessment by dynamic vapor sorption (DVS); format: physicochemical; conditions: 25° C.; for Form change before and after DVS: XRPD
Method: Dynamic Vapor Sorption (DVS) is measured via a SMS (Surface Measurement Systems Ltd.) intrinsic DVS. Typical Parameters for DVS test are as follows: Temperature: 25° C. Gas and flow rate: N2, 200 mL/min dm/dt: 0.002%/min Relative Humidity (RH) range: 20% RH-95% RH-0% RH-95% RH Dynamic vapor sorption (DVS) was applied to test hygroscopicity of crystalline Form I with 13.8 mg of sample Form I at 25° C. The weight gains at each relative humidity were recorded in a cycle of 20%-95%-0%-95% RH. […] Dynamic vapor sorption (DVS) was applied to test hygroscopicity of Form VII with 11.5 mg of sample Form VII at 25° C. The weight gains at each relative humidity were recorded in a cycle of 0%-95%-0% RH.

[8] = Stability study: mixture of forms stirred in solvent systems with different water activity, residual solid by XRPD; format: physicochemical; conditions: high water activity (high humidity, ≥50% RH)
Source text: The mixture of existing crystalline Form 2 disclosed in CN102112483A, Form I and Form II was stirred in several solvent systems with different water activity (aw).
It should be noted that the solvent systems for different water activity (aw) include but not limit to H2O and IPA. The same conclusion could be drawn with this experiment in other solvent systems suitable for the preparation of different water activity (aw).

[9] = test system: type 1 diabetics; conditions: Phase 2, type 1 diabetics, compared with placebo; cited from earlier work
[10] = test system: people with type 2 diabetes; conditions: Phase 2, type 2 diabetes, including those with renal impairment; cited from earlier work
[11] = Table 27, head prints Media:SGF, text says FaSSIF pH=6.5, equilibrated for 1 hour

Row | Compound | Solubility 1 hour [1, 11] [µg/mL] | Particle size distribution (description) [2] | D10 [2] [μm] | D50 [2] [μm] | D90 [2] [μm] | MV (average particle size based on volume) [2] [μm] | Solubility 1 hour [4] [µg/mL] | Stability on storage [6] | Solid Form after storage ([6]; 25° C./60% RH) | Solid Form after storage ([6]; 40° C./75% RH) | Weight gain under 80% RH ([7]; cycle 20%-95%-0%-95% RH) [%] | Form change before and after DVS ([7]; cycle 20%-95%-0%-95% RH) | Solubility relative to existing crystalline Form 2 [1] [times] | also measured
1 | CCOc1ccc(Cc2cc([C@@H]3O[C@H](SC)[C@@H](O)[C@H](O)[C@H]3O)ccc2Cl)cc1 [Form 2, (2S,3R,4R,5S,6R)-2-(4-chloro-3-(4-ethoxybenzyl)phenyl)-6-(methylthio)tetrahydro-2H-pyran-3,4,5-triol, reference compound] | 130 (≈ 306 µM) | wide and bimodal | 2.32 | 45.00 | 144.4 | 60.43 | 60 (≈ 141 µM) | – | – | – | – | – | – | Crystallinity [3]: Decreased (Mainly; Final form [3]: Form 2; Mechanical stability [3]: poor mechanical stability; Crystal shape (PLM) [5]: needle-like shape
2 | CCOc1ccc(Cc2cc([C@@H]3O[C@H](SC)[C@@H](O)[C@H](O)[C@H]3O)ccc2Cl)cc1 [Form II, (2S,3R,4R,5S,6R)-2-(4-chloro-3-(4-ethoxybenzyl)phenyl)-6-(methylthio)tetrahydro-2H-pyran-3,4,5-triol] | – | – | – | – | – | – | 80 (≈ 188 µM) | good stability | Form II (the middle | Form II (the bottom | 2.46 | substantially unchanged; also recorded: No form change | – | solubility at 1 h ([1]; fasted state simulated intestinal fluid (FaSSIF), pH 6.5, fassif, thermodynamic from solid, Table 27, head prints Media:SGF, text says FaSSIF pH=6.5, equilibrated for 1 hour): 150 µg/mL (≈ 353 µM); Stability in high water activity environment [8]: more stable than Form 2
3 | CCOc1ccc(Cc2cc([C@@H]3O[C@H](SC)[C@@H](O)[C@H](O)[C@H]3O)ccc2Cl)cc1 [Form III, (2S,3R,4R,5S,6R)-2-(4-chloro-3-(4-ethoxybenzyl)phenyl)-6-(methylthio)tetrahydro-2H-pyran-3,4,5-triol] | 180 (≈ 424 µM) | – | – | – | – | – | 130 (≈ 306 µM) | good stability | Form III (the middle | Form III (the bottom | 0.13 | substantially unchanged; also recorded: No form change | 1.4 | Solubility relative to existing crystalline Form 2 [4]: 2.2 times
4 | CCOc1ccc(Cc2cc([C@@H]3O[C@H](SC)[C@@H](O)[C@H](O)[C@H]3O)ccc2Cl)cc1 [Form V, (2S,3R,4R,5S,6R)-2-(4-chloro-3-(4-ethoxybenzyl)phenyl)-6-(methylthio)tetrahydro-2H-pyran-3,4,5-triol] | – | narrow and normal | 4.38 | 18.81 | 72.98 | 32.70 | – | – | – | – | – | – | – | –
5 | CCOc1ccc(Cc2cc([C@@H]3O[C@H](SC)[C@@H](O)[C@H](O)[C@H]3O)ccc2Cl)cc1 [Form VI, (2S,3R,4R,5S,6R)-2-(4-chloro-3-(4-ethoxybenzyl)phenyl)-6-(methylthio)tetrahydro-2H-pyran-3,4,5-triol] | – | – | – | – | – | – | – | good stability | Form VI (the middle | Form VI (the bottom | 1.80 | substantially unchanged; also recorded: No form change | – | Crystallinity [3]: Decreased (Slightly; Final form [3]: no crystalline form change; also recorded: Form VI; Mechanical stability [3]: better mechanical stability
6 | CCOc1ccc(Cc2cc([C@@H]3O[C@H](SC)[C@@H](O)[C@H](O)[C@H]3O)ccc2Cl)cc1 [Form VII, (2S,3R,4R,5S,6R)-2-(4-chloro-3-(4-ethoxybenzyl)phenyl)-6-(methylthio)tetrahydro-2H-pyran-3,4,5-triol] | 200 (≈ 471 µM) | – | – | – | – | – | 150 (≈ 353 µM) | – | – | – | – | – | 1.5 | Weight gain under 80% RH ([7]; cycle 0%-95%-0% RH): 1.08%; Form change before and after DVS ([7]; cycle 0%-95%-0% RH): substantially unchanged; also recorded: No form change; Solubility relative to existing crystalline Form 2 [4]: 2.5 times; Crystal shape (PLM) [5]: irregular massive shape
7 | CCOc1ccc(Cc2cc([C@@H]3O[C@H](SC)[C@@H](O)[C@H](O)[C@H]3O)ccc2Cl)cc1 [Form VIII, (2S,3R,4R,5S,6R)-2-(4-chloro-3-(4-ethoxybenzyl)phenyl)-6-(methylthio)tetrahydro-2H-pyran-3,4,5-triol] | 180 (≈ 424 µM) | narrow and normal | 7.30 | 36.60 | 112.4 | 51.93 | – | – | – | – | – | – | 1.4 | Weight gain under 80% RH ([7]; cycle 0%-95%-0% RH): 0.60%; Form change before and after DVS ([7]; cycle 0%-95%-0% RH): substantially unchanged; also recorded: No form change
8 | CCOc1ccc(Cc2cc([C@@H]3O[C@H](SC)[C@@H](O)[C@H](O)[C@H]3O)ccc2Cl)cc1 [Sotagliflozin, (2S,3R,4R,5S,6R)-2-(4-chloro-3-(4-ethoxybenzyl)phenyl)-6-(methylthio)tetrahydro-2H-pyran-3,4,5-triol] | – | – | – | – | – | – | – | – | – | – | – | – | – | Blood sugar [9]: reduction of blood sugar; Glycaemic variability [9]: improvement in glycaemic variability; Meal-time insulin dose [9]: reduced meal-time insulin dose; Blood pressure [10]: blood pressure improvements; Blood sugar [10]: lowering of blood sugar; Weight [10]: weight loss
